Test results: publication PMC12226733, “Evolution of iGluR ligand specificity, polyamine regulation, and ion selectivity inferred from a placozoan epsilon receptor” (Communications Biology, 2025)
“And” between values parts separate entries of the source, which are not always exact repeats. Equal entries are not always repeated. Where two headings read alike, the source gives them in different places.

Experiments:
[1] = molecular target: T1, human GluA2 receptor (wildtype) (Homo sapiens, UniProt P42262); type: cell-based; settings: for normalized conductance (G-V, Figure 5g), Avg: Na vs Na
T1 construct: host or cells: CHO-K1
T1 sequence (P42262 25-883): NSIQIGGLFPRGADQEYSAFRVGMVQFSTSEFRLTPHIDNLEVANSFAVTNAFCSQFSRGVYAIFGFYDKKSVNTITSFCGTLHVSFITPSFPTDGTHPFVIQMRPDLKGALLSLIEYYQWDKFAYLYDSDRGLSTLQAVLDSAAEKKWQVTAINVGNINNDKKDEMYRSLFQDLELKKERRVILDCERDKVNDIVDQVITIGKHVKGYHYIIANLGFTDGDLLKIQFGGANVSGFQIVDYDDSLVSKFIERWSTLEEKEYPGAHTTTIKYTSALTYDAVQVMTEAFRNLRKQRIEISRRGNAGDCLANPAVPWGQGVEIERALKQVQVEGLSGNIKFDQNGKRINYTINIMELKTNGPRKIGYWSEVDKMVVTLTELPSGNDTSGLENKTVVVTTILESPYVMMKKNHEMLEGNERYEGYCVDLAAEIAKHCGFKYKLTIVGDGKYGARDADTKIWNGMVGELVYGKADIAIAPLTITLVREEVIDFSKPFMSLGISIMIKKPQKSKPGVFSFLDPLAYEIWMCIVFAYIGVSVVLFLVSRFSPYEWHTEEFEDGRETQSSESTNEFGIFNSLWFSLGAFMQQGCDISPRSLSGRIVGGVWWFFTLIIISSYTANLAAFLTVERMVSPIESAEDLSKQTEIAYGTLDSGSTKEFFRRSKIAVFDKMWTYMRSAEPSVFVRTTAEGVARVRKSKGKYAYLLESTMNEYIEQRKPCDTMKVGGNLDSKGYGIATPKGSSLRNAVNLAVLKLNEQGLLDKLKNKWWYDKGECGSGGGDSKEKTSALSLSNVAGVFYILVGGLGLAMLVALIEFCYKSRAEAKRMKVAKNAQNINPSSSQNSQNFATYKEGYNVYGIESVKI

[2] = system: GluE1αA D646A; settings: single recordings c1-c7, AVG c8
From the text: To further elucidate the nature of internal polyamine block in GluE1αA, we performed outside-out membrane patch clamp experiments in wildtype and mutant channels. […] Current-voltage (I-V) relationships were converted to conductance-voltage (G-V) plots and fit with a single permeant blocker model to estimate both the dissociation constant for Spm at 0 mV (Kd(0mV)) and the voltage dependency of block, as previously described[46],[47].
HEK-293T/17 cells (ATCC) were maintained in MEM supplemented with GlutaMAX and 10% fetal bovine serum (FBS) at 37 °C and 5% CO2. […] Transient transfections were carried out 48 h post-plating using the calcium phosphate precipitation method. After 6–8 hours, cells were washed twice with PBS and maintained in fresh medium. Cells transfected with mammalian GluA2 cDNA (plasmid vector described above) were returned to an incubator at 37 °C for 24–48 hours and cells transfected with Epsilon GluE1αA were incubated at 28 °C for 48–72 hours. In cells co-transfected with TARP-γ2, 30 μM NBQX was included in the medium to minimize AMPAR/auxiliary-induced cytotoxicity. All constructs were co-transfected with a plasmid encoding enhanced green fluorescent protein (eGFP) to identify transfected cells. Electrophysiology responses were recorded from outside-out patches excised from transfected cells. Recording pipettes were composed of borosilicate glass (3 to 6 megaohm, King Precision Glass) coated with dental wax to reduce electrical noise. All recordings were performed using Axopatch 200B amplifier (Molecular Devices, LLC). Current records were filtered at 5 or 10 kHz and sampled at 25–50 kHz. Series resistance (3 to 12 megaohms) was compensated by 95%. Recordings were performed at a range of holding potentials from −100 mV to 100 mV to study polyamine block. Data was acquired using pClamp9 software (Molecular Devices, LLC). All experiments were performed at room temperature. All chemicals were purchased from Sigma-Aldrich, unless otherwise indicated. External solution contained (in mM): 150 NaCl, 5 HEPES, 0.1 CaCl2, 0.1 MgCl, and […], pH 7.3–7.4. […] The osmotic pressure of all solutions was adjusted to 295 to 300 mOsm with sucrose. […] Stocks were thawed on the day of the experiment and used to prepared agonist-containing external solutions. Raw data for all electrophysiology experiments are provided in Supplementary Data 3. Current-voltage (I-V) relationships were fit using Origin 7 (OriginLab) using a ninth order polynomial function to estimate the reversal potential (Vrev).
Agonist-evoked membrane conductance (G) was calculated using the following equation: G=I/(V−Vrev) […]

SMILES: [Na+] [Na]
- normalized conductance (G-V, Figure 5g), Avg ([1]; Vm 0.00): 0.0219
- normalized conductance (G-V, Figure 5g), Avg ([1]; Vm 20.00): 0.0142
- normalized conductance (G-V, Figure 5g), Avg ([1]; Vm 40.00): 0.0218
- normalized conductance (G-V, Figure 5g), Avg ([1]; Vm 60.00): 0.11
- normalized conductance (G-V, Figure 5g), Avg ([1]; Vm 80.00): 0.29
- normalized conductance (G-V, Figure 5g), Avg ([1]; Vm -20.00): 0.10
- normalized conductance (G-V, Figure 5g), Avg ([1]; Vm -40.00): 0.41
- normalized conductance (G-V, Figure 5g), Avg ([1]; Vm -60.00): 0.86
- normalized conductance (G-V, Figure 5g), Avg ([1]; Vm -80.00): 1.00
- I-V current, Na vs Na, Avg of recordings ([1]; Vm 0.00, Figure 5b): -0.00449
- I-V current, Na vs Na, Avg of recordings ([1]; Vm 20.00, Figure 5b): 0.00351
- I-V current, Na vs Na, Avg of recordings ([1]; Vm 40.00, Figure 5b): 0.00517
- I-V current, Na vs Na, Avg of recordings ([1]; Vm 60.00, Figure 5b): 0.02
- I-V current, Na vs Na, Avg of recordings ([1]; Vm 80.00, Figure 5b): 0.08
- I-V current, Na vs Na, Avg of recordings ([1]; Vm -20.00, Figure 5b): -0.0114
- I-V current, Na vs Na, Avg of recordings ([1]; Vm -40.00, Figure 5b): -0.0751
- I-V current, Na vs Na, Avg of recordings ([1]; Vm -60.00, Figure 5b): -0.30
- I-V current, Na vs Na, Avg of recordings ([1]; Vm -80.00, Figure 5b): -0.69

SMILES: NCCCNCCCCNCCCN [spermine]
- Normalized current (Inorm) ([2]; 20 mV): 0.12 and 0.10 and 0.11
- Normalized current (Inorm) ([2]; 30 mV): 0.18 and 0.16 and 0.19
- Normalized conductance (Gnorm) ([2]; -100 mV): 1.00
- Normalized current (Inorm) ([2]; -100 mV): -1.00
